Laboratory results from patent US20240150377A1, “MODULATORS OF CYSTIC FIBROSIS TRANSMEMBRANE CONDUCTANCE REGULATOR” (VERTEX PHARMACEUTICALS INCORPORATED, priority 2020, published 2024).
Where two headings read alike, the source gives them in different places. Each block holds one molecule with its values, some of them ahead of it.

Biological target: T1, CFTR (Homo sapiens, UniProt P13569, DEL508-508)
T1 construct: endogenous in cells; host or cells: primary human bronchial epithelial cells from CF subjects (F508del/MF-HBE), differentiated at air-liquid interface
T1 sequence (P13569 with tags, fused parts or gaps DEL508-508): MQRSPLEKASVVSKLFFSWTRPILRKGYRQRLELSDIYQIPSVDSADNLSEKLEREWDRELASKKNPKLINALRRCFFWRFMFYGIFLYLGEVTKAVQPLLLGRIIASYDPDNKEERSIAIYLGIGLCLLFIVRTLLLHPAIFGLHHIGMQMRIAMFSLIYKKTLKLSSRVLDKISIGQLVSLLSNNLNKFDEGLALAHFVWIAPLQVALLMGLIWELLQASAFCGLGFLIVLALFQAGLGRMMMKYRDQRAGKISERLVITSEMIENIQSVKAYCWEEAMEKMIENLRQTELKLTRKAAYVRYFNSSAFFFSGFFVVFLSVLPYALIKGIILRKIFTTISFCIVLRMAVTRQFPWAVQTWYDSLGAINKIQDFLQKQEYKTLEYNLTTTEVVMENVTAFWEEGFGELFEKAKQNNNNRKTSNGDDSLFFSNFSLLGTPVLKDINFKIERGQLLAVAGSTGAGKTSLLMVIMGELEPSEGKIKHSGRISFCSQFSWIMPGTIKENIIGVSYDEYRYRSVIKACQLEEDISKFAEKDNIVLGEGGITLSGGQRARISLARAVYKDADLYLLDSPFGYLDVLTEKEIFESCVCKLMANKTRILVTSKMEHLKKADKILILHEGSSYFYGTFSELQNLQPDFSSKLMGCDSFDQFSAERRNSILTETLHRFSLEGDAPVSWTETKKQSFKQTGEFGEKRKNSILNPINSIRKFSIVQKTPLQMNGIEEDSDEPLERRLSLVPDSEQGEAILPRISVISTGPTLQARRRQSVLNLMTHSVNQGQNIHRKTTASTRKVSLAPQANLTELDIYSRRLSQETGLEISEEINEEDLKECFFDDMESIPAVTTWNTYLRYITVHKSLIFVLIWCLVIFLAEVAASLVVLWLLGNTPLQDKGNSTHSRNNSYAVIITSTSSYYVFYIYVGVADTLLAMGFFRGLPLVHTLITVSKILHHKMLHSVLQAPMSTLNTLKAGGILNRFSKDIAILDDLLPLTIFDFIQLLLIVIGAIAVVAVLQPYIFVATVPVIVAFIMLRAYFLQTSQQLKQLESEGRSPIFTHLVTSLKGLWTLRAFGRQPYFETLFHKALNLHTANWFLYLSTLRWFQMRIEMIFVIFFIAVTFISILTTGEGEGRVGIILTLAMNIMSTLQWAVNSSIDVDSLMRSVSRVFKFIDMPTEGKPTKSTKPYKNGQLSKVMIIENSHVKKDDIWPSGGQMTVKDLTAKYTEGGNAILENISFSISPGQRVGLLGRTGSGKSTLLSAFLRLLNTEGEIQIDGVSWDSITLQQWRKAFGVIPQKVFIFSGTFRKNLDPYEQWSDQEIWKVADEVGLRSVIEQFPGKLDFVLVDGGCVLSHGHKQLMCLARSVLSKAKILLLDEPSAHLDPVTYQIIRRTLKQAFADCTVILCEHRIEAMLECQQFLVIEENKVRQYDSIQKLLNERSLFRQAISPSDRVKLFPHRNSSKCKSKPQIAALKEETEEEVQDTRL
Assay: HBE assay: Ussing chamber assay of CFTR-mediated short-circuit currents
Format: cell-based
Conditions: for EC50: read-out: HBE EC50
How it was run: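 CFTR-mediated Isc (μA/cm²) equals the peak response to apical 20 μM forskolin minus the residual after a 20 μM each BPO/GlyH-101/CFTR inhibitor 172 cocktail, recorded in Ussing chambers at Vhold 0 mV, 37 °C, pH 7.4, with 30 μM apical amiloride. Cells were F508del/MF HBE cultures preincubated 18-24 h with corrector (concentration range or 10 μM) plus 1 μM ivacaftor in 20% human serum.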

[1] = Table 11, read-out: HBE Max Activity (%)
[2] = read-out: HBE Activity at 10 μM (%)
[3] = HBE assay, read-out: HBE Max activity (%)
[4] = Table 13, at 10 μM, read-out: HBE Activity at 10 μM (%)

- activation at 10 µM (HBE assay, 10 μM, read-out: HBE Activity at 10 μM (%)): > 60%
- EC50 (HBE assay): < 1 µM
- Emax [3]: > 60%
SMILES: Cc1cccc(C)c1-c1cc2nc(n1)NS(=O)(=O)c1cccc(c1)C(=O)N(Cc1ncc(N3CC(C)(C)C3)cn1)[C@H](CC1CC1)CO2 [Compound 1505]

- activation at 10 µM (Table 10, at 10 μM, read-out: HBE activity at 10 (μM) (%)): > 60%
SMILES: Cc1cccc(C)c1-c1cc2nc(n1)NS(=O)(=O)c1cccc(c1)C(=O)N(Cc1ccnn1C)[C@H](CC(C)(C)C)CO2 [Compound 827]

- EC50 (HBE assay): < 1 µM
- Emax [3]: > 60%
SMILES: COCCN(c1cncc(CN2C(=O)c3cccc(c3)S(=O)(=O)Nc3nc(cc(-c4c(C)cccc4C)n3)OC[C@H]2CC(C)(C)C)n1)C1CC2(CC2)C1 [Compound 1394]

- activation at 10 µM [4]: > 600%
SMILES: Cc1cccc(C)c1-c1cc2nc(n1)NS(=O)(=O)c1cccc(c1)C(=O)N(Cc1cc(N(C)CC(C)(C)C)ccn1)[C@H](CC(C)(C)C)CO2 [Compound 994]

- EC50 (Table 10): < 1 µM
SMILES: Cc1cccc(C)c1-c1cc2nc(n1)NS(=O)(=O)c1cccc(c1)C(=O)N(CC1CCC(O)(C(F)(F)F)CC1)[C@H](CC(C)(C)C)CO2 (stereo partly shown) [Compound 904]

The next lines start with the molecule.

SMILES: Cc1cccc(C)c1-c1cc2nc(n1)NS(=O)(=O)c1cccc(c1)C(=O)N(Cc1ncc(C3CCOCC3)cn1)[C@H](CC(C)(C)C)CO2 [Compound 634]
- EC50 (Table 11): < 1 µM
- Emax [1]: > 60%

SMILES: COCCN(CCOC)c1cccc(CN2C(=O)c3cccc(c3)S(=O)(=O)Nc3nc(cc(-c4c(C)cccc4C)n3)OC[C@H]2CC(C)(C)C)n1 [Compound 128, (11R)-12-[[6-[Bis(2-methoxyethyl)amino]-2-pyridyl]methyl]-6-(2,6-dimethylphenyl)-11-(2,2-dimethylpropyl)-2,2-dioxo-9-oxa-2λ^6-thia-3,5,12,19-tetrazatricyclo[12.3.1.14,8]nonadeca-1(18),4(19),5,7,14,16-hexaen-13-one]
- EC50 (Table 10): < 1 µM
- activation at 10 µM [2]: > 60%
- Emax (read-out: HBE Max activity (%)): > 60%

SMILES: Cc1cccc(C)c1-c1cc2nc(n1)NS(=O)(=O)c1cccc(c1)C(=O)N(Cc1cncc(N3CCCC[C@@H]3C3CC3)n1)[C@H](CC(C)(C)C)CO2 [Compound 1533]
- activation at 10 µM [2]: > 60%

SMILES: Cc1cccc(C)c1-c1cc2nc(n1)NS(=O)(=O)c1cccc(c1)C(=O)N(Cc1nc(C)c(C)n1C)[C@H](CC(C)(C)C)CO2 [Compound 269]
- activation at 10 µM (Table 12, at 10 μM, read-out: HBE Activity at 10 μM (%)): > 600%

SMILES: Cc1cccc(C)c1-c1cc2nc(n1)NS(=O)(=O)c1cccc(c1)C(=O)N(Cc1ccc(N3CCN(C)CC3)cn1)[C@H](CC(C)(C)C)CO2 [Compound 478]
- Emax (Table 10, read-out: HBE Max activity (%)): > 60%

SMILES: Cc1cccc(C)c1-c1cc2nc(n1)NS(=O)(=O)c1cccc(c1)C(=O)N(CC(=O)N1CCC(C(C)(C)C)CC1)[C@H](CC(C)(C)C)CO2 [Compound 210]
- activation at 10 µM [4]: > 600%

SMILES: Cc1cccc(C)c1-c1cc2nc(n1)NS(=O)(=O)c1cccc(c1)C(=O)N(Cc1cccc(N3CC(C)(C)C3)n1)[C@H](CC(C)(C)C)CO2 [Compound 632]
- EC50 (Table 11): < 1 µM
- Emax [1]: > 60%

SMILES: Cc1cccc(C)c1-c1cc2nc(n1)NS(=O)(=O)c1cccc(c1)C(=O)N(Cc1nccc(N(C)C(C3CC3)C3CC3)n1)[C@H](CC(C)(C)C)CO2 [Compound 434]
- activation at 10 µM [4]: > 600%

SMILES: COC[C@H]1CCCN1c1cnc(CN2C(=O)c3cccc(c3)S(=O)(=O)Nc3nc(cc(-c4c(C)cccc4C)n3)OC[C@H]2CC(C)(C)C)nc1 [Compound 570]
- EC50 (Table 12): < 1 µM
- Emax (Table 12, read-out: HBE Max Activity (%)): > 60%

SMILES: COCCCN(C)c1cccc(CN2C(=O)c3cccc(c3)S(=O)(=O)Nc3nc(cc(-c4c(C)cccc4C)n3)OC[C@H]2CC(C)(C)C)n1 [Compound 127, (11R)-6-(2,6-Dimethylphenyl)-11-(2,2-dimethylpropyl)-12-[[6-[3-methoxypropyl(methyl)amino]-2-pyridyl]methyl]-2,2-dioxo-9-oxa-2λ^6-thia-3,5,12,19-tetrazatricyclo[12.3.1.14,8]nonadeca-1(18),4(19),5,7,14,16-hexaen-13-one]
- EC50 (Table 10): < 1 µM
- Emax (read-out: HBE Max activity (%)): > 60%

SMILES: CC(=O)N1CCN(c2cccc(CN3C(=O)c4cccc(c4)S(=O)(=O)Nc4nc(cc(-c5c(C)cccc5C)n4)OC[C@H]3CC(C)(C)C)n2)CC1 [Compound 253]
- activation at 10 µM [4]: > 600%
